Measured values published in patent publication US20080274112A1, “Nogo Receptor Antagonists” (priority 2003, published 2008).

Key:
[1] = tested on: 7E11; test: 7E11 binding to immobilized point-mutant peptides (EC50); design: species or system murine
Method: To verify these contact points, several peptides containing point mutations within the LDLSDNAQLR sequence (SEQ ID NO: 27) were generated and tested for 7E11 binding. The peptides were immobilized on a MaxiSorp™ plate (Nunc®) and serial dilutions of […] were applied. […] The most significant change in EC50 was observed when Arg119 was mutated to Alanine.

[2] = tested on: 7E11; test: 7E11 binding to digest peptides of NgR1 (MS analysis); design: species or system murine; conditions: trypsin or Asp-N digest peptides
Method: The 7E11 binding site was further analyzed by testing trypsic peptide digests of sNgR310. […] 7E11 bound only a single tryptic digest peptide, providing additional evidence that […] binds to a single epitope on NgR1. Subsequent mass spectroscopy (MS) and sequence analyses identified the bound peptide to be […] (SEQ ID NO: 26).
The LDLSDNAQLRVVDPTT peptide (SEQ ID NO: 1) was subjected to further mapping analysis. The peptide was digested with trypsin, which yielded two major fragments, LDLSDNAQLR (SEQ ID NO: 27) and VVDPTT (SEQ ID NO: 28), and the ability of 7E11 to bind them was tested. […] Within this peptide fraction, detailed MS analysis identified several scrambled peptides that also bound 7E11, including peptides with deamination at Asn115 and Gln117, addition of Alanine at 112 or 113, or addition of Serine at 114 (Table 3).
The LDLSDNAQLRVVDPTT peptide was also digested with the endoprotease Asp-N and 7E11 binding was tested. Endoprotease Asp-N cleaved the peptide into 3 peptide fragments, L, DLS and DNAQLRVVDPTT (SEQ ID NO: 36). Of these products, 7E11 bound the DNAQLRVVDPTT peptide. Taken together, the trypsin and Asp-N cleavage data further localize the 7E11 binding epitope to the sequence shared between them, DNAQLR (SEQ ID NO: 37).

[3] = target: polypeptide p-617 (SEQ ID NO: 1) (Rattus norvegicus, UniProt Q99M75); test: Specificity ELISA on polypeptide p-617; format: binding
Source text: To determine the specificity of the monoclonal and Fab-phage antibodies produced in Examples 1 and 2, we performed an ELISA using a panel of Nogo receptor-1 polypeptides. The panel consisted of sNogoR310-Fc (a fusion protein comprising amino acids 26-310 of rat Nogo receptor-1 and a rat Fc fragment), sNogoR344-Fc (see supra), polypeptide p-617 (SEQ ID NO: 1), polypeptide p-618 (a 19-amino acid polypeptide from the LRR7 region of rat Nogo receptor-1; FIG. 2; SEQ ID NO: 11) and polypeptides p-4 and p-5 (polypeptides from the LRR5 and LRRCT regions of Nogo receptor-1, respectively). Ovalbumin and BSA were used as controls.

[4] = target: T1, OM-gp + sNogoR344-Fc (Rattus norvegicus, UniProt Q99M75, A303T/C287S/C43R/E284G/T53A); test: mAb/Fab inhibition of OM-gp binding to sNogoR344-Fc (ELISA)
T1 construct: amino acid residues 26-344 of rat Nogo receptor-1; made in house
T1 sequence (Q99M75 26-344 C43R/T53A/E284G/C287S/A303T): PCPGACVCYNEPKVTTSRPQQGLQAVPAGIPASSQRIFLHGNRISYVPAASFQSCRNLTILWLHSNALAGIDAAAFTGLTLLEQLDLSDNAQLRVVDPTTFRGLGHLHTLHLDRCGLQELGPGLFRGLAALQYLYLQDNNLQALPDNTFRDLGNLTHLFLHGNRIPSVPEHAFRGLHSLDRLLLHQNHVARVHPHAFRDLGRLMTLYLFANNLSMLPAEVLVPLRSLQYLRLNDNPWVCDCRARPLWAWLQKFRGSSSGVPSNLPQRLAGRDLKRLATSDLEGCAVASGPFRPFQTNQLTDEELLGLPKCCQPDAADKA
Method: (§1) 0.5 μg of a soluble Nogo receptor-1 fusion protein comprising amino acid residues 26-344 of rat Nogo receptor-1 and the hinge and Fc region of the rat IgG1 molecule (sNogoR344-Fc) produced as described below was immobilized on 250 μg of protein-A- or wheatgerm agglutinin-conjugated SPA beads (Amersham Pharmacia Biotech) for 2 hours at 25° C. SPA beads coupled with Fc-sNogoR-1, anti-Nogo receptor-1 mAb and 1 μl ^125I-Nogo66 (Amersham, 2000 Ci/mmol, 1 nM) in 50 μl of the HEPES-buffered incubation medium (10 mM HEPES, pH 7.4, 0.1% bovine serum albumin, 0.1% ovalbumin, 2 mM MgCl2, 2 mM CaCl2 and protease inhibitors) was added to each sample well. After 16 hours, radioactivity was measured in quadruplicate samples using a TopCount® (Packard). IC50 values were calculated from a curve-fit analysis (FIG. 3) (PRISM, GraphPad Software, NJ). In some experiments, we also used AP-ligand conjugates (e.g. AP-Nogo66) and detected binding by monitoring alkaline phosphatase activity. We also assayed the ability of the mAbs to block binding of the ligands MAG-Fc and AP-OM-gp to Nogo receptor-1.
(§2) The calculated IC50 for Nogo66 for 7E11 and 1H2 were 400 nM and 60 nM, respectively. The data from ELISAs monitoring mAb-mediated inhibition of binding of the three ligands to Nogo receptor-1 are summarized in Table 6.
(§3) We also performed ELISA binding assays using the Fab-phage 14D5.

[5] = target: T2, Nogo66 + sNogoR344-Fc (Rattus norvegicus, UniProt Q99M75, A303T/C287S/C43R/E284G/T53A); test: mAb/Fab inhibition of Nogo66 binding to sNogoR344-Fc (ELISA)
T2 construct: amino acid residues 26-344 of rat Nogo receptor-1; made in house
T2 sequence (Q99M75 26-344 C43R/T53A/E284G/C287S/A303T): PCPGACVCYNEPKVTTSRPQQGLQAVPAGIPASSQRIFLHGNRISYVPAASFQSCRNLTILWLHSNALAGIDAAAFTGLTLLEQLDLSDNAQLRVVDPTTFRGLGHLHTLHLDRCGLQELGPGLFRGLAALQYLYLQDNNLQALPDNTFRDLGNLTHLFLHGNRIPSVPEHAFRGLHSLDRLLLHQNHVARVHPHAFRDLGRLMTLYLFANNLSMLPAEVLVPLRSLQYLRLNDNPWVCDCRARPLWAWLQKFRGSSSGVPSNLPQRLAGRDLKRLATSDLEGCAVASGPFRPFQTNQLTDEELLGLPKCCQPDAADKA
Method: as §1, §2, §3

[6] = tested on: DRG neurons; test: Neurite outgrowth assay, myelin mixed with test protein (Example 10); format: cell-based; conditions: P3-4 rat DRG; spotted mixed with CNS myelin
Method: Lab-Tek® culture slides (4 wells) were coated with 0.1 mg/ml poly-D-lysine (Sigma®). CNS myelin alone or mixed with sNogoR310, sNogoR310-Fc fusion protein, mAb 5B10 or control PBS were separately spotted as 3 μl drops. Fluorescent microspheres (Polysciences) were added to the myelin/PBS to allow later identification of the drops (Grandpre et al, Nature 403, 2000). Lab-Tek® slides were then rinsed and coated with 10 μg/ml laminin (Gibco™).
Dorsal root ganglions (DRG's) from P3-4 Sprague Dawley rat pups were dissociated with 1 mg/ml collagenase type 1 (Worthington), triturated with fire-polished Pasteur pipettes pre-plated to enrich in neuronal cells and finally plated at 23,000 cells/well on the pre-coated Labtek culture slides. The culture medium was F12 containing 5% heat inactivated donor horse serum, 5% heat inactivated fetal bovine serum and 50 ng/ml MNGF and incubated at 37° C. and 5% CO2 for 6 hours.
Slides were fixed for 20 minutes with 4% paraformaldehyde containing 20% sucrose and stained for the neuronal marker anti beta-III-tubulin (Covance TUJ1) diluted 1:500. As secondary antibody anti-mouse Alexa Fluor® 594 (Molecular Probes) was diluted 1:300 and slides were coverslipped with Gel/Mount™ (Biømeda™). 5× digital images were acquired with OpenLab™ software and analyzed by using the MetaMorph® software for quantification of neurite outgrowth.

[7] = target: T3, MAG + sNogoR344-Fc (Rattus norvegicus, UniProt Q99M75, A303T/C287S/C43R/E284G/T53A); test: mAb/Fab inhibition of MAG binding to sNogoR344-Fc (ELISA)
T3 construct: amino acid residues 26-344 of rat Nogo receptor-1; made in house
T3 sequence (Q99M75 26-344 C43R/T53A/E284G/C287S/A303T): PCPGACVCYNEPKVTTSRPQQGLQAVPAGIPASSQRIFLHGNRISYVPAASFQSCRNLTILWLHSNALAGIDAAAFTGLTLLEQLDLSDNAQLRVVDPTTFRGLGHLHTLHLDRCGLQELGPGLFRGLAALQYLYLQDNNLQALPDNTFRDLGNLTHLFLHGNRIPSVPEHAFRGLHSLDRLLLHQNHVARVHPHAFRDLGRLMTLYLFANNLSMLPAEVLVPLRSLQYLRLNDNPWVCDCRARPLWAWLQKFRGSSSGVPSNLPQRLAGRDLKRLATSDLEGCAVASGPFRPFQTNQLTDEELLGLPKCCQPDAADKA
Method: as §1, §2, §3

[8] = tested on: Nogo receptor-1; test: Blocking of ligand binding to Nogo receptor-1 by soluble receptors

Question: LDLSDNAALRVVDPTT [Q117A] was tested. Which “increase of EC50 versus original peptide” value [1] did it give?
Answer: 30 fold

Question: Which “increase of EC50 versus original peptide” value [1] does the source give for LDLSDNAQLHVVDPTT [R119H] here?
Answer: 25 fold

Question: For DNAQLRVVDPTT, which “binding by 7E11” value [2] is on record?
Answer: bound

Question: “AAAFGLTLLEQLDLSDNAQLR (AAAFTGLTLLEQLDLSDNAQLR) [tryptic digest peptide of sNgR310]” was tested. Which “binding by 7E11” value [2] did it give?
Answer: bound

Question: What does the source list for “5B10: murine monoclonal anti-Nogo receptor-1 antibody, IgG1 kappa, ATCC PTA-4588; immunogen rat Nogo receptor-1 residues 110-125”?
Answer: binding to polypeptide p-617 [3]: specifically bound; inhibition of binding of OM-gp to sNogoR344-Fc [4]: inhibited binding; inhibition of binding of Nogo66 to sNogoR344-Fc [5]: inhibited binding; protection from myelin-mediated inhibition of neurite outgrowth [6]: protected; inhibition of binding of MAG to sNogoR344-Fc [7]: inhibited binding

Question: With LDLSDNAQLR as the molecule, how does the “binding by 7E11” value [2] read?
Answer: bound

B1: sNogoR344: soluble Nogo receptor-1 polypeptide, residues 26-344 or 27-344 (protein, listed as Rattus sp.)
chain: PCPGACVCYNEPKVTTSRPQQGLQAVPAGIPASSQRIFLHGNRISYVPAASFQSCRNLTILWLHSNALAGIDAAAFTGLTLLEQLDLSDNAQLRVVDPTTFRGLGHLHTLHLDRCGLQELGPGLFRGLAALQYLYLQDNNLQALPDNTFRDLGNLTHLFLHGNRIPSVPEHAFRGLHSLDRLLLHQNHVARVHPHAFRDLGRLMTLYLFANNLSMLPAEVLVPLRSLQYLRLNDNPWVCDCRARPLWAWLQKFRGSSSGVPSNLPQRLAGRDLKRLATSDLEGCAVASGPFRPFQTNQLTDEELLGLPKCCQPDAADKA
Question: How did the “blocking of binding of NogoA, NogoB, NogoC, MAG and OM-gp to Nogo receptor-1” value [8] turn out when B1 was run?
Answer: block the binding
